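These data come from cells grown in 96-well plates and exposed to compound for 48 hours at five concentrations. GI50 = concentration required for 50% inhibition of growth.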 Calls of active or inactive are those of the source. No stated cut-off is given here; in the data, active = GI50 up to about 1.1 µM and inactive = higher.
Columns and labels:
Test in all cases: inhibition of tumour cell growth, NCI panel, 48 h
CCRF-CEM = test system: CCRF-CEM
SF-539 = test system: SF-539
OVCAR-8 = test system: OVCAR-8
EKVX = test system: EKVX
OVCAR-5 = test system: OVCAR-5
M14 = test system: M14
HT-29 = test system: HT-29
TK-10 = test system: TK-10
UO-31 = test system: UO-31
UACC-257 = test system: UACC-257
KM12 = test system: KM12
SF-295 = test system: SF-295
UACC-62 = test system: UACC-62
COLO 205 = test system: COLO 205
HCT-15 = test system: HCT-15
SK-MEL-5 = test system: SK-MEL-5
SW-620 = test system: SW-620
ACHN = test system: ACHN
HOP-62 = test system: HOP-62
MCF7 = test system: MCF7

Row | Structure (SMILES) | GI50 (CCRF-CEM) | GI50 (SF-539) | GI50 (OVCAR-8) | GI50 (EKVX) | GI50 (OVCAR-5) | GI50 (M14) | GI50 (HT-29) | GI50 (TK-10) | GI50 (UO-31) | GI50 (UACC-257) | GI50 (KM12) | GI50 (SF-295) | GI50 (UACC-62) | GI50 (COLO 205) | GI50 (HCT-15) [µM] | GI50 (SK-MEL-5) | GI50 (SW-620) | GI50 (ACHN) | GI50 (HOP-62) | GI50 (MCF7)
1 | NCCCCNCCCNC(=O)c1nc(-c2csc(CCN)n2)sc1Cl | > 100 µM (inactive) | > 100 µM (inactive) | > 100 µM (inactive) | > 100 µM (inactive) | > 100 µM (inactive) | > 100 µM (inactive) | > 100 µM (inactive) | > 100 µM (inactive) | > 100 µM (inactive) | > 100 µM (inactive) | > 100 µM (inactive) | > 100 µM (inactive) | > 100 µM (inactive) | > 100 µM (inactive) | > 100 | > 100 µM (inactive) | > 100 µM (inactive) | > 100 µM (inactive) | > 100 µM (inactive) | –
2 | CN(C)C(=O)N(CCCl)N=O | > 100 µM (inactive) | > 100 µM (inactive) | > 100 µM (inactive) | > 100 µM (inactive) | > 100 µM (inactive) | – | > 100 µM (inactive) | – | > 100 µM (inactive) | > 100 µM (inactive) | > 100 µM (inactive) | > 100 µM (inactive) | > 100 µM (inactive) | > 100 µM (inactive) | > 100 | > 100 µM (inactive) | > 100 µM (inactive) | – | > 100 µM (inactive) | > 100 µM (inactive)
3 | CCCCc1nccc2c(C)c3[nH]c4ccccc4c3cc12 | 2.85 µM (inactive) | 2.45 µM (inactive) | 2.84 µM (inactive) | 4.48 µM (inactive) | 6.44 µM (inactive) | – | 2.62 µM (inactive) | – | 1.86 µM (inactive) | 2.42 µM (inactive) | 3.09 µM (inactive) | 2.68 µM (inactive) | 2.8 µM (inactive) | 0.92 µM (active) | 2.07 | 2.24 µM (inactive) | 2.26 µM (inactive) | – | 3.68 µM (inactive) | 2.69 µM (inactive)
4 | CC(=O)OC1CC[C@@]2(C)C(=CC[C@@H]3[C@@H]2CC[C@]2(C)C(OC(C)=O)[C@H](n4ccnc4)C[C@@H]32)C1 (some centres not stated) | 11.7 µM (inactive) | 15.3 µM (inactive) | 17.1 µM (inactive) | 37.7 µM (inactive) | 74.1 µM (inactive) | 17.2 µM (inactive) | 10.7 µM (inactive) | > 100 µM (inactive) | 36.6 µM (inactive) | 17.3 µM (inactive) | 16.7 µM (inactive) | 31.7 µM (inactive) | 16.1 µM (inactive) | 18.5 µM (inactive) | 15.5 | 16.3 µM (inactive) | 33.6 µM (inactive) | 40.3 µM (inactive) | – | 16.4 µM (inactive)
5 | O=C(CNC(=O)OCc1ccccc1)NCCCCC(NC(=O)OCc1ccccc1)C(=O)NC(CCCCNC(=O)CNC(=O)OCc1ccccc1)C(=O)OCc1ccccc1 (configuration not stated) | > 62.5 µM (inactive) | – | > 62.5 µM (inactive) | – | > 62.5 µM (inactive) | > 62.5 µM (inactive) | > 62.5 µM (inactive) | > 62.5 µM (inactive) | > 62.5 µM (inactive) | > 62.5 µM (inactive) | – | – | > 62.5 µM (inactive) | – | > 62.5 | > 62.5 µM (inactive) | > 62.5 µM (inactive) | > 62.5 µM (inactive) | > 62.5 µM (inactive) | > 62.5 µM (inactive)
6 | N#C/C(=C/C=C/c1ccco1)C(N)=O | – | > 10 µM (inactive) | > 10 µM (inactive) | > 10 µM (inactive) | > 10 µM (inactive) | > 10 µM (inactive) | > 10 µM (inactive) | > 10 µM (inactive) | > 10 µM (inactive) | – | > 10 µM (inactive) | > 10 µM (inactive) | – | > 10 µM (inactive) | > 10 | > 10 µM (inactive) | > 10 µM (inactive) | > 10 µM (inactive) | > 10 µM (inactive) | > 10 µM (inactive)
7 | Cc1ccc(OCC2OC(n3cnc4c(N(C)C)nc(Br)nc43)CC2Oc2ccc(C)cc2)cc1 (configuration not stated) | > 100 µM (inactive) | > 100 µM (inactive) | > 100 µM (inactive) | > 100 µM (inactive) | > 100 µM (inactive) | > 100 µM (inactive) | > 100 µM (inactive) | > 100 µM (inactive) | > 100 µM (inactive) | > 100 µM (inactive) | > 100 µM (inactive) | > 100 µM (inactive) | > 100 µM (inactive) | > 100 µM (inactive) | > 100 | > 100 µM (inactive) | > 100 µM (inactive) | > 100 µM (inactive) | – | > 100 µM (inactive)
8 | NC1c2c(Br)sc(N3CCCC3)c2C(=O)C1O (configuration not stated) | > 50 µM (inactive) | > 50 µM (inactive) | > 50 µM (inactive) | > 50 µM (inactive) | > 50 µM (inactive) | > 50 µM (inactive) | > 50 µM (inactive) | > 50 µM (inactive) | > 50 µM (inactive) | > 50 µM (inactive) | > 50 µM (inactive) | > 50 µM (inactive) | > 50 µM (inactive) | > 50 µM (inactive) | > 50 | > 50 µM (inactive) | > 50 µM (inactive) | > 50 µM (inactive) | – | > 50 µM (inactive)
9 | CSc1nc(=O)n(CCC#N)nc1SC | – | > 100 µM (inactive) | 59.6 µM (inactive) | > 100 µM (inactive) | 41.8 µM (inactive) | 18.7 µM (inactive) | 51.6 µM (inactive) | 40.2 µM (inactive) | 51.8 µM (inactive) | > 10 µM (inactive) | > 100 µM (inactive) | > 100 µM (inactive) | 32.3 µM (inactive) | 19.5 µM (inactive) | 21.9 | 19.1 µM (inactive) | 21 µM (inactive) | 38.8 µM (inactive) | > 100 µM (inactive) | 2.72 µM (inactive)
10 | O=S1(=O)C(=C(c2ccccc2)c2ccccc2)S(=O)(=O)c2ccccc21 | > 100 µM (inactive) | 27.5 µM (inactive) | > 100 µM (inactive) | > 100 µM (inactive) | > 100 µM (inactive) | – | > 100 µM (inactive) | – | > 100 µM (inactive) | > 100 µM (inactive) | > 100 µM (inactive) | 33.8 µM (inactive) | > 72.1 µM (inactive) | > 100 µM (inactive) | > 100 | > 89.7 µM (inactive) | > 100 µM (inactive) | – | 23.2 µM (inactive) | 7.46 µM (inactive)
11 | O=C(NNC(=O)c1ccncc1)c1ccncc1 | > 100 µM (inactive) | – | > 100 µM (inactive) | > 100 µM (inactive) | > 100 µM (inactive) | > 100 µM (inactive) | > 100 µM (inactive) | > 100 µM (inactive) | > 100 µM (inactive) | > 100 µM (inactive) | > 100 µM (inactive) | > 100 µM (inactive) | > 100 µM (inactive) | > 100 µM (inactive) | > 100 | > 100 µM (inactive) | > 100 µM (inactive) | > 100 µM (inactive) | > 100 µM (inactive) | > 100 µM (inactive)
